Measured values: patent US9982005B2, “Macrolides and methods of their preparation and use” (President and Fellows of Harvard College, priority 2013, dated 2018)
In brackets after ≈: the same amount, converted by molar mass.

Experiments:
Type in all cases: cell-based
[1] = tested on: BS1723 B. subtilis BS168 WT wild type; test: broth dilution MIC, B. subtilis BS1723; conditions: Bacillus subtilis, BS1723 B. subtilis BS168 WT wild type; read-out: MIC
Excerpt: (§1) We have collected MIC data for a total of 50 novel macrolides that this platform has produced against over 21 unique strains of B. subtilis, E. coli, S. aureus, S. pneumoniae, and H. influenzae, including several multidrug-resistant strains, with a special focus on macrolide resistant mechanisms (vide supra). Azithromycin was included as a control macrolide. CLSI standard procedures for broth dilution MIC determination were used. […] These genotypes can be constitutive or inducible. The finding that C4-epi (unnatural) isomers of the “azaketolide” macrolide class have enhanced activities relative to C4 natural isomers is very exciting.

EC878 E. coli tolC = test: broth dilution MIC, E. coli EC878; conditions: Escherichia coli
Excerpt: as §1

EC882 E. coli imp = test: broth dilution MIC, E. coli EC882; conditions: Escherichia coli
Excerpt: as §1

[2] = tested on: SA101 S. aureus ATCC29213; test: broth dilution MIC, S. aureus SA101; conditions: Staphylococcus aureus, ATCC29213, SA101 S. aureus ATCC29213; read-out: MIC
Excerpt: as §1

EC107 E. coli ATCC25922 = test: broth dilution MIC, E. coli EC107; conditions: Escherichia coli, read-out: MIC
Excerpt: as §1

BS1725 B. subtilis ermC = test: broth dilution MIC, B. subtilis BS1725; conditions: Bacillus subtilis
Excerpt: as §1

Row | Compound | MIC [1] [mg/L] | MIC (EC878 E. coli tolC) [mg/L] | MIC (EC882 E. coli imp) [mg/L] | MIC [2] [mg/L] | MIC (EC107 E. coli ATCC25922) [mg/L] | MIC (BS1725 B. subtilis ermC; BS1725 B. subtilis ermC (+ery)) [mg/L] | MIC (BS1725 B. subtilis ermC; BS1725 B. subtilis ermC (−ery)) [mg/L]
1 | CC[C@H]1OC(=O)[C@](C)(F)C(=O)C[C@@H](O[C@@H]2OC(C)CC(N(C)C)C2O)[C@](C)(OC)C[C@@H](C)CN[C@H](C)[C@H]2N(CCCCn3cc(-c4cccc(N)c4)nn3)C(=O)O[C@]12C (some centres unmarked) [FSM-10661] | > 32 | 16 (≈ 19.2 µM) | 2 (≈ 2.4 µM) | > 32 | > 32 | > 32 | > 32
2 | CC[C@H]1OC(=O)[C@](C)(F)C(=O)C[C@@H](O[C@@H]2OC(C)CC(N(C)C)C2O)[C@](C)(OC)C[C@@H](C)CN[C@H](C)[C@H]2N(CCCCn3cc(-c4ccccn4)nn3)C(=O)O[C@]12C (some centres unmarked) [FSM-10662] | > 32 | 16 (≈ 19.6 µM) | 4 (≈ 4.89 µM) | > 32 | > 32 | > 32 | > 32
3 | CC[C@H]1OC(=O)[C@](C)(F)C(=O)C[C@@H](O[C@@H]2OC(C)CC(N(C)C)C2O)[C@](C)(OC)C[C@@H](C)CN[C@H](C)[C@H]2N(CCCCn3cc(-c4nccs4)nn3)C(=O)O[C@]12C (some centres unmarked) [FSM-10666] | > 32 | 16 (≈ 19.4 µM) | 4 (≈ 4.85 µM) | > 32 | > 32 | > 32 | > 32
4 | CC[C@H]1OC(=O)[C@](C)(F)C(=O)C[C@@H](O[C@@H]2OC(C)CC(N(C)C)C2O)[C@](C)(OC)C[C@@H](C)CN[C@H](C)[C@H]2N(CCCCn3cc(-c4cccnn4)nn3)C(=O)O[C@]12C (some centres unmarked) [FSM-10667] | > 32 | 16 (≈ 19.5 µM) | 4 (≈ 4.88 µM) | > 32 | > 32 | > 32 | > 32
5 | CC[C@H]1OC(=O)[C@](C)(F)C(=O)C[C@@H](O[C@@H]2OC(C)CC(N(C)C)C2O)[C@](C)(OC)C[C@@H](C)CN[C@H](C)[C@H]2N(CCCCn3cc(-c4nc5ccccc5s4)nn3)C(=O)O[C@]12C (some centres unmarked) [FSM-10671] | > 32 | 32 (≈ 36.6 µM) | 8 (≈ 9.15 µM) | > 32 | > 32 | > 32 | > 32
6 | CC[C@H]1OC(=O)[C@H](C)C(=O)C[C@@H](O[C@@H]2OC(C)CC(N(C)C)C2O)[C@](C)(OC)C[C@@H](C)CN[C@H](C)[C@H]2N(CCCCn3cc(-c4cccnn4)nn3)C(=O)O[C@]12C (some centres unmarked) [FSM-10785] | > 32 | 2 (≈ 2.5 µM) | 1 (≈ 1.25 µM) | > 32 | > 32 | > 32 | > 32
7 | CC[C@H]1OC(=O)[C@H](C)C(=O)C[C@@H](O[C@@H]2OC(C)CC(N(C)C)C2O)[C@](C)(OC)C[C@@H](C)CN[C@H](C)[C@H]2N(CCCCn3cc(-c4ccccn4)nn3)C(=O)O[C@]12C (some centres unmarked) [FSM-10786] | > 32 | 2 (≈ 2.5 µM) | 0.25 (≈ 0.312 µM) | > 32 | > 32 | > 32 | > 32
8 | CC[C@H]1OC(=O)[C@H](C)C(=O)C[C@@H](O[C@@H]2OC(C)CC(N(C)C)C2O)[C@](C)(OC)C[C@@H](C)CN[C@H](C)[C@H]2N(CCCCn3cc(-c4nccs4)nn3)C(=O)O[C@]12C (some centres unmarked) [FSM-10787] | > 32 | 2 (≈ 2.48 µM) | 0.125 (≈ 0.155 µM) | > 32 | 32 (≈ 39.7 µM) | > 32 | > 32
